Series [1] relates to Mus musculus. The experiment in a line: Antiosteoporosis activity against ovariectomized ICR mouse assessed as serum calcium level at 110.3 nmol/kg, po after 30 mins. The format is functional.
For series [2], the system named is Mus musculus. The experiment in a line: Antiosteoporosis activity against ovariectomized ICR mouse assessed as serum phosphorous level at 110.3 nmol/kg, po after 30 mins. The class given is functional.
Series [3] deals with Mus musculus. In words: Antiosteoporosis activity against ovariectomized ICR mouse assessed as serum ALP activity at 110.3 nmol/kg, po after 30 mins. The format is functional.
Series [4] deals with Mus musculus. In words: Antiosteoporosis activity against ovariectomized ICR mouse assessed as dry femur weight at 110.3 nmol/kg, po after 30 mins. The class given is functional.
The subject of series [5] is Mus musculus. The experiment in a line: Antiosteoporosis activity against ovariectomized ICR mouse assessed as femur ash weight at 110.3 nmol/kg, po after 30 mins. The format is functional.
Series [6] has as its system Mus musculus. In words: Antiosteoporosis activity against ovariectomized ICR mouse assessed as femur length at 110.3 nmol/kg, po after 30 mins. The format is functional.
The test system of series [7] is Mus musculus. The experiment in a line: Antiosteoporosis activity against ovariectomized ICR mouse assessed as femur calcium content at 110.3 nmol/kg, po after 30 mins. The format is functional.
Series [8] has as its system Mus musculus. The experiment in a line: Antiosteoporosis activity against ovariectomized ICR mouse assessed as femur phosphorous content at 110.3 nmol/kg, po after 30 mins. The class given is functional.
For series [9], the system named is Mus musculus. The experiment in a line: Antiosteoporosis activity against ovariectomized ICR mouse assessed as mineral content at 110.3 nmol/kg, po after 30 mins. The format is functional.
Series [10] concerns Mus musculus. The experiment in a line: Toxicity in ovariectomized ICR mouse assessed as tail bleeding time at 110.3 nmol/kg, po for 30 mins. The class given is organism-based. The settings on record: in vivo, 0.5 h.
The test system of series [11] is Mus musculus. In words: Toxicity in ovariectomized ICR mouse assessed as tail bleeding time at 110.3 nmol/kg, po for 90 mins. The format is organism-based. The note with it: in vivo, 1.5 h.
Series [12] has as its system Mus musculus. In words: Toxicity in ovariectomized ICR mouse assessed as change in uterine weight at 110.3 nmol/kg, po after 4 weeks. The format is organism-based. The note with it: in vivo, 672 h.

SMILES strings stand for the structures. Peptide text beside a SMILES is read from it. * marks the point of attachment. Succinyl(O17-estradiol) = C[C@]12CC[C@@H]3c4ccc(O)cc4CC[C@H]3[C@@H]1CC[C@@H]2OC(=O)CCC(=O)*; Acetyl(estradiol-3-yloxy) = C[C@]12CC[C@@H]3c4ccc(OCC(=O)*)cc4CC[C@H]3[C@@H]1CC[C@@H]2O; X1 = C[C@]12CC[C@@H]3c4ccc(OCC(=O)*)cc4CC[C@H]3[C@@H]1CCC2=O

Take `C[C@]12CC[C@@H]3c4ccc(OCC(=O)N[C@@H](CCCNC(=N)N)C(=O)NCC(=O)N[C@@H](CC(=O)O)C(=O)N[C@@H](Cc5ccccc5)C(=O)O)cc4CC[C@H]3[C@@H]1CCC2=O` (X1-RGDF-OH): the Activity in the series with Mus musculus [1] was 3.44 mM; in the series on Mus musculus [2] it was 3.17 mM; in the series with Mus musculus [3], 16.42 U/L; in the series on Mus musculus [4], 53.99 mg; in the series with Mus musculus [5], 33.85 mg; with Mus musculus [6] it was 1.65 cm. In addition, the Activity with Mus musculus [7] was 56.96%; with Mus musculus [8] it was 20.32%; with Mus musculus [9], 0.59%; in the series on Mus musculus [10] it was 581 s; in the series on Mus musculus [11], 576 s; in the series with Mus musculus [12], 0.06 g.
For the molecule `C[C@]12CC[C@@H]3c4ccc(OCC(=O)N[C@@H](CCCNC(=N)N)C(=O)NCC(=O)N[C@@H](CC(=O)O)C(=O)N[C@@H](CO)C(=O)O)cc4CC[C@H]3[C@@H]1CCC2=O` (X1-RGDS-OH), the Activity in the series on Mus musculus [1] was found to be 3.33 mM; in the series on Mus musculus [2], 2.98 mM; in the series on Mus musculus [3], 16.62 U/L; with Mus musculus [4], 54.29 mg; with Mus musculus [5], 34.38 mg; in the series with Mus musculus [6] it was 1.65 cm. Besides, the Activity is 57.76% with Mus musculus [7]; 20.44% with Mus musculus [8]; 0.6% in the series on Mus musculus [9]; 579 s in the series on Mus musculus [10]; 568 s in the series on Mus musculus [11]; 0.069 g with Mus musculus [12].
As to `CC(C)[C@H](NC(=O)[C@H](CC(=O)O)NC(=O)CNC(=O)[C@H](CCCNC(=N)N)NC(=O)COc1ccc2c(c1)CC[C@@H]1[C@@H]2CC[C@]2(C)C(=O)CC[C@@H]12)C(=O)O` (X1-RGDV-OH), the Activity with Mus musculus [1] came out at 3.33 mM; in the series with Mus musculus [2] it was 2.96 mM; in the series on Mus musculus [3] it was 17.42 U/L; with Mus musculus [4], 54.12 mg; in the series on Mus musculus [5], 33.99 mg; in the series with Mus musculus [6], 1.66 cm. In addition, the Activity in the series on Mus musculus [7] came out at 57.24%; with Mus musculus [8] it was 20.08%; with Mus musculus [9], 0.61%; in the series on Mus musculus [10] it was 563 s; in the series with Mus musculus [11], 571 s; in the series on Mus musculus [12], 0.066 g.
On to `C[C@]12CC[C@@H]3c4ccc(OCC(=O)N[C@@H](CCCNC(=N)N)C(=O)NCC(=O)N[C@@H](CC(=O)O)C(=O)N[C@@H](Cc5ccccc5)C(=O)O)cc4CC[C@H]3[C@@H]1CC[C@@H]2O` ({Acetyl(estradiol-3-yloxy)}-RGDF-OH), for which the Activity in the series with Mus musculus [1] is listed as 3.34 mM; with Mus musculus [3], 25.42 U/L; in the series with Mus musculus [5] it was 33.99 mg; with Mus musculus [6], 1.67 cm; in the series with Mus musculus [9], 0.6%; in the series with Mus musculus [10] it was 557 s. Besides, the Activity came out at 560 s in the series on Mus musculus [11] and 0.067 g in the series with Mus musculus [12].
With `C[C@]12CC[C@@H]3c4ccc(OCC(=O)N[C@@H](CCCNC(=N)N)C(=O)NCC(=O)N[C@@H](CC(=O)O)C(=O)N[C@@H](CO)C(=O)O)cc4CC[C@H]3[C@@H]1CC[C@@H]2O` ({Acetyl(estradiol-3-yloxy)}-RGDS-OH), the Activity in the series with Mus musculus [1] was found to be 3.33 mM; with Mus musculus [3], 26.62 U/L; with Mus musculus [6], 1.65 cm; with Mus musculus [9], 0.6%; in the series on Mus musculus [10] it was 582 s; in the series on Mus musculus [11], 577 s. Further, the Activity in the series on Mus musculus [12] is 0.064 g.
With `CC(C)[C@H](NC(=O)[C@H](CC(=O)O)NC(=O)CNC(=O)[C@H](CCCNC(=N)N)NC(=O)COc1ccc2c(c1)CC[C@@H]1[C@@H]2CC[C@]2(C)[C@@H](O)CC[C@@H]12)C(=O)O` ({Acetyl(estradiol-3-yloxy)}-RGDV-OH), the Activity is on record as 3.32 mM in the series with Mus musculus [1]; 26.01 U/L in the series on Mus musculus [3]; 34.29 mg with Mus musculus [5]; 0.61% in the series with Mus musculus [9]; 569 s in the series on Mus musculus [10]; 577 s with Mus musculus [11]. The Activity in the series with Mus musculus [12] amounted to 0.064 g.
Consider `C[C@]12CC[C@@H]3c4ccc(O)cc4CC[C@H]3[C@@H]1CC[C@@H]2OC(=O)CCC(=O)N[C@@H](CCCNC(=N)N)C(=O)NCC(=O)N[C@@H](CC(=O)O)C(=O)N[C@@H](Cc1ccccc1)C(=O)O` ({Succinyl(O17-estradiol)}-RGDF-OH), for which the Activity in the series with Mus musculus [1] is listed as 3.34 mM; with Mus musculus [3], 23.18 U/L; with Mus musculus [5], 34.87 mg; with Mus musculus [7], 58.06%; with Mus musculus [9] it was 0.61%; with Mus musculus [10], 576 s. For the same molecule, the results for the Activity in the series on Mus musculus [11] and in the series with Mus musculus [12] were 568 s and 0.06 g, respectively.
For the molecule `C[C@]12CC[C@@H]3c4ccc(O)cc4CC[C@H]3[C@@H]1CC[C@@H]2OC(=O)CCC(=O)N[C@@H](CCCNC(=N)N)C(=O)NCC(=O)N[C@@H](CC(=O)O)C(=O)N[C@@H](CO)C(=O)O` ({Succinyl(O17-estradiol)}-RGDS-OH), the Activity with Mus musculus [1] was found to be 3.35 mM; in the series on Mus musculus [3], 23.93 U/L; in the series on Mus musculus [4] it was 53.98 mg; in the series with Mus musculus [6] it was 1.66 cm; in the series on Mus musculus [7] it was 59.14%; in the series with Mus musculus [9], 0.6%. The Activity in the series on Mus musculus [10] is listed as 575 s; with Mus musculus [11], 561 s; with Mus musculus [12] it was 0.063 g.
With `CC(C)[C@H](NC(=O)[C@H](CC(=O)O)NC(=O)CNC(=O)[C@H](CCCNC(=N)N)NC(=O)CCC(=O)O[C@H]1CC[C@H]2[C@@H]3CCc4cc(O)ccc4[C@H]3CC[C@]12C)C(=O)O` ({Succinyl(O17-estradiol)}-RGDV-OH), the Activity was 3.36 mM with Mus musculus [1]; 22.96 U/L with Mus musculus [3]; 34.7 mg with Mus musculus [5]; 1.67 cm in the series with Mus musculus [6]; 0.61% in the series on Mus musculus [9]; 551 s in the series on Mus musculus [10]. In addition, the Activity in the series with Mus musculus [11] is on record as 560 s; in the series on Mus musculus [12], 0.064 g.
`C[C@]12CC[C@@H]3c4ccc(O)cc4CC[C@H]3[C@@H]1CC[C@@H]2O` [ESTRADIOL]: the Activity is recorded as 3.34 mM with Mus musculus [1]; 27.22 U/L in the series with Mus musculus [3]; 1.64 cm with Mus musculus [6]; 0.61% with Mus musculus [9]; 417 s in the series with Mus musculus [10]; 441 s in the series on Mus musculus [11]. For the same molecule, the Activity in the series on Mus musculus [12] is listed as 0.108 g.
On to `C[C@]12CC[C@@H]3c4ccc(O)cc4CC[C@H]3[C@@H]1CCC2=O` [ESTRONE], for which the Activity in the series on Mus musculus [1] was 3.35 mM; with Mus musculus [2] it was 3.13 mM; in the series on Mus musculus [3] it was 27.97 U/L; with Mus musculus [4], 53.03 mg; in the series with Mus musculus [5], 32.08 mg; in the series on Mus musculus [6], 1.65 cm. The Activity in the series on Mus musculus [7] turned out to be 56.2%; in the series with Mus musculus [8], 19.11%; with Mus musculus [9], 0.61%; in the series on Mus musculus [10], 411 s; with Mus musculus [11] it was 433 s; in the series with Mus musculus [12], 0.114 g.

Source of the values: ChEMBL document CHEMBL1151896, “3D QSAR of novel estrogen-RGD peptide conjugates: getting insight into structural dependence of anti-osteoporosis activity and side effect of estrogen in ERT” (Bioorg Med Chem, 2009).
